According to patent US11279726B2, “Norbornene-based amphipathic compound and utilization thereof” (Industry-University Cooperation Foundation Hanyang …, priority 2017, dated 2022):

Legend:
[1] = Critical micelle concentration by fluorescent staining with diphenylhexatriene (DPH); format: physicochemical; settings: aqueous solution
Experimental: A method for measuring CMC is not particularly limited, and a method widely known in the art may be used, for example, by fluorescence staining with diphenylhexatriene (DPH).
To identify the characteristics of NBMs synthesized in Preparation Example 1 to 6 according to the synthetic method of Example 1, molecular weights (MWs) of NBMs, critical micelle concentrations (CMCs) and hydrodynamic radii (Rh) of the micelles were measured.
Specifically, the critical micelle concentrations (CMCs) were measured by fluorescent staining with diphenylhexatriene (DPH), and the hydrodynamic radii (Rh) of the micelle formed with individual agents (1.0 wt %) were measured by dynamic light scattering (DLS).

[2] = biological target: T1, Salmonella typhimurium melibiose permease (MelBSt) (Salmonella typhimurium, UniProt P30878); assay: MelBSt extraction and thermostability (SDS-PAGE / western blotting); settings: 1.5 wt %, elevated temperature
T1 construct: made in house; host or cells: E. coli DW2 (ΔmelB, ΔlacZY)
Experimental: An experiment of measuring structural stability of MelBSt (Salmonella typhimurium melibiose permease) protein with NBMs was carried out. The MelBSt protein was extracted from the membrane using NBMs or DDM, and the amounts and structure of the extracted proteins were analyzed by SDS-PAGE and western blotting. The concentration of the used amphiphilic compound was 1.5 wt %. The proteins were extracted at four temperatures (0, 45, 55, and 65° C.) and incubated at the same temperature for 90 minutes, and the amounts of the remaining proteins solubilized in an aqueous solution were measured, so as to simultaneously evaluate both performances of the compound such as protein extraction efficiency and stabilization activity. The amounts of the proteins extracted and stabilized by respective amphiphilic molecules were represented as relative values (%) to the amounts of total proteins contained in the membrane sample not treated with an amphiphilic molecule.
Specifically, Salmonella typhimurium melibiose permease (MelBSt) with a C-terminal 10-His tag was expressed in E. coli DW2 cells (^ΔmelB and ^ΔlacZY) using plasmid pK95^ΔAHB/WT MelBSt/CH10. Cell growth and membrane preparation were carried out according to the method described in the literature written by A. S. Ethayathulla et al. (Nat. Commun. 2014, 5, 3009). Protein assays were carried out with a Micro BCA kit (Thermo Scientific, Rockford, Ill.). The measurement of MelBSt stability was carried out on NBMs or DDM according to the protocol described by P. S. Chae et al. (Nat. Methods 2010, 7, 1003-1008). Membrane samples containing MelBSt (final protein concentration was 10 mg/mL) were incubated with a solubilization buffer (20 mM sodium phosphate, pH 7.5, 200 mM NaCl, 10% glycerol, 20 mM melibiose) and 1.5% (w/v) of DDM or NBMs (X-NBM-C10, D-NBM-C10, X-NBM-C11 or D-NBM-C11) at four different temperatures (0, 45, 55, 65° C.) for 90 minutes. To remove insoluble materials, following ultracentrifugation at 355,590 g using a Beckman Optimal™ MAX ultracentrifuge with TLA-100 rotor for 45 minutes at 4° C. was performed, and 20 μg of each protein sample was separated by SDS-16% PAGE, and then immunoblotted with a Penta-His-HRP antibody (Qiagen, Germantown, Md.). MelBSt was detected using SuperSignal West Pico chemiluminescent substrate by an ImageQuant LAS 4000 Biomolecular Imager (GE Health Care Life Science).

[3] = biological target: T2, β2AR / β2AR-Gs complex (Homo sapiens, UniProt P07550); assay: Size exclusion chromatography of β2AR and β2AR-Gs complex after amphiphile exchange; settings: after amphiphile exchange, 20x CMC
T2 construct: Flag; made in house
Experimental: (§1) β2AR purified with 0.1 wt % DDM was loaded onto an M1 Flag column in the presence of 2 mM […], and the column was washed with a DDM or X-NBM-C11 buffer (20 mM HEPES pH 7.5, 100 mM NaCl, 0.2% respective amphiphile). The receptor was eluted in 20× CMC DDM or X-NBM-C11 containing 5 mM EDTA and 0.2 mg/ml free Flag peptide. The eluate was further applied to a superdex-200 10/300 GL column (GE healthcare) at 0.5 ml/min, and UV absorbance at 280 nm was recorded. The running buffer contained 20 mM HEPES pH 7.5, 100 mM NaCl, 20× CMC individual detergents (DDM and X-NBM-C11).
(§2) In addition, GPCR-Gs complex purified in DDM was replaced with X-NBM-C11 through amphiphilic molecule exchange, and sample aliquots were obtained at regular intervals in 21-day incubation at 4° C. to measure complex stability.

[4] = test system: β2AR / β2AR-Gs complex; assay: as above; design: species or system human; settings: 21-day incubation at 4° C.
Experimental: as §1, §2

[5] = biological target: mBBr-β2AR (Homo sapiens, UniProt P07550); assay: Gs-protein coupling assay, bimane fluorescence of mBBr-β2AR; settings: 0.1% amphiphile, 2 μM ISO, 250 nM Gs
Experimental: To investigate a protein function, the receptor was conjugated with a fluorophore (monobromobimane; mBBr). The mBBr-β2AR was used to monitor the conformational changes of the receptor in the presence of binding partners (isopreoterenol (ISO) and Gs-protein) through fluorescence measurement, and detailed experimental methods are as follows.
0.5 μl undispersed mBBr-labeled receptor at 50 μM in DDM was diluted with 500 μl 0.1% NBM or DDM-containing buffer, and incubated for 15 minutes at room temperature, thereby obtaining a receptor having a final concentration of 50 nM. 2 μM isoproterenol (ISO) was added and the resulting solution was further incubated for 15 minutes at room temperature. After addition of 250 nM Gs, the protein samples were further incubated at room temperature for 20 minutes. Bimane fluorescence was measured by excitation at 370 nm, and emission spectra were recorded from 430 nm to 510 nm in a unit of 1 nm increments with 0.5 nm/s integration on a Spex FluoroMax-3 spectrofluorometer (Jobin Yvon Inc.) in photon counting mode set at 4-nm emission bandwidth pass. The mBBr response in 0.1% DDM was used as a positive control.

[6] = biological target: β2AR-Gs complex (Homo sapiens, UniProt P07550); assay: Negative stain EM analysis of β2AR-Gs complex
Experimental: A β2AR-Gs protein complex was prepared for electron microscopy using the conventional negative staining protocol, and imaged at room temperature with a Tecnai T12 electron microscope operated at 120 kV using low-dose procedures. Images were recorded at a magnification of 71,138× and a defocus value of approximately 1.4μ using a Gatan US4000 CCD camera. All images were binned (2×2 pixels) to obtain a pixel size of 4.16 A at the specimen level. Particles were manually excised using e2boxer (part of the EMAN2 software suite). 2D reference-free alignment and classification of particle projections were performed using ISAC. 14,556 projections of β2AR-Gs were subjected to ISAC, producing 199 classes consistent over two-way matching and accounting for 10,100 particle projections.

Row | Compound | CMC [1] [mM] | CMC (wt %) [1] [wt %] | MelBSt membrane protein stabilization activity (overall) [2] | Size/homogeneity of β2AR protein-detergent complexes (SEC) [3] | β2AR-Gs complex stability by SEC profiles [4] | Conformational change / function of mBBr-β2AR with ISO and Gs [5] | Particle dispersity of β2AR-Gs complex in negative stain EM [6]
1 | CCCCCCCCCCCOCC1C2CC([C@@H]1COCCCCCCCCCCC)[C@H](O[C@@H]1OC(CO)[C@@H](O[C@H]3OC(CO)[C@@H](O)C(O)C3O)C(O)C1O)C2O[C@@H]1OC(CO)[C@@H](O[C@H]2OC(CO)[C@@H](O)C(O)C2O)C(O)C1O (stereo partly drawn) [D-NBM-C11] | ~0.007 | ~0.0008 | excellent membrane protein stabilization activity | – | – | – | –
2 | CCCCCCCCCCCOCC1C2CC([C@H]1COCCCCCCCCCCC)[C@H](O[C@@H]1OC(CO)[C@@H](O[C@H]3OC(CO)[C@@H](O)C(O)C3O)C(O)C1O)C2O[C@@H]1OC(CO)[C@@H](O[C@H]2OC(CO)[C@@H](O)C(O)C2O)C(O)C1O (stereo partly drawn) [X-NBM-C11] | ~0.006 | ~0.0007 | – | homogeneous PDCs with the same size as that formed by DDM | perfectly maintained complex stability | retains an original protein function | highly mono-dispersed particles
